How the values were obtained:
Type in all cases: in vivo
[1] = system: barnyardgrass (Echinochloa crus-galli, ECHCG); experiment: Greenhouse herbicide screen, post-emerge application, phytotoxicity rating; conditions: POST emergent, 14 days after application, scale 0-100
From the text: (§1) A standard greenhouse herbicide activity screening system was used to evaluate the herbicidal efficacy and crop safety of these test compounds. Seven broadleaf weed species including redroot pigweed (Amaranthus retrofiexus, AMARE), velvetleaf (Abutilon theophrasti, ABUTH), sicklepod (Cassia obtusifolia, CASOB), ivyleaf morningglory (Ipomoea hederacea, IPOHE), lambsquarters (Chenopodium album, CHEAL), common ragweed (Ambrosia artemisiifolia L., AMBEL), and cocklebur (Xanthium strumarium, XANST) were used as test species. Four grass weed species including green foxtail (Setaria viridis, SETVI), barnyardgrass (Echinochloa crus-galli, ECHCG), johnsongrass (Sorghum halepense, SORHA), and large crabgrass (Digitaria sanguinalis, DIGSA) were also used. In addition, four crop species, field corn (Zea mays L., var. Dekalb 535, CORN), soybean (Glycine max L., var. Pella 86, SOY), upland rice (Oryza sp., var.Cocodrie, RICE) and wheat (Triticum aestivum L.) were included.
(§2) All plants were grown in 10 cm square plastic pots which were filled with a sandy loam soil mix. For pre-emerge tests, seeds were planted one day prior to application of the test compounds. For post-emerge tests, seeds were planted 8-21 days prior to the test to allow emergence and good foliage development prior to application of the test substances. At the time of the post-emerge application, plants of all species were usually at the 2-3 leaf stage of development.
(§3) All test compounds were dissolved in acetone and applied to the test units in a volume of 187 l/ha. Test materials were applied at rates ranging from 15 g ai/ha to 1000 g ai/ha using a track sprayer equipped with a TJ8001E even flow flat fan spray nozzle. Plants were arranged on a shelf so that the top of the canopy (post-emerge) or top of the soil surface (pre-emerge) was 40-45 cm below the nozzle. Pressurized air was used to force the test solution through the nozzle as it was mechanically advanced (via electrically driven chain drive) over the top of all test plants/pots. This application simulates a typical commercial field herbicide application.
(§4) Pre-emergence tests were top watered immediately after treatment to incorporate the test materials, then routinely top-watered for normal growth. Post-emerge test units were always bottom-watered.
(§5) At 14 days after application of the test materials, phytotoxicity ratings were recorded. A rating scale of 0-100 was used as previously described in Research Methods in Weed Science, 2nd edition, B. Truelove, Ed., Southern Weed Science Society, Auburn University, Auburn, Ala., 1977. Briefly, “0” corresponds to no damage and “100” corresponds to complete death of all plants in the test unit. This scale was used both to determine efficacy against weed species and damage to crop species. Herbicide activity data for various compounds of this invention, which are shown by compound No. in Tables 1-12, are shown in Tables 13 and 14.

[2] = system: cocklebur (Xanthium strumarium, XANST); experiment: as above; conditions: POST emergent, 14 days after application, scale 0-100
From the text: as §1, §2, §3, §4, §5

[3] = system: common ragweed (Ambrosia artemisiifolia L., AMBEL); experiment: as above; conditions: POST emergent, 14 days after application, scale 0-100
From the text: as §1, §2, §3, §4, §5

[4] = system: green foxtail (Setaria viridis, SETVI); experiment: as above; conditions: POST emergent, 14 days after application, scale 0-100
From the text: as §1, §2, §3, §4, §5

[5] = system: ivyleaf morningglory (Ipomoea hederacea, IPOHE); experiment: as above; conditions: POST emergent, 14 days after application, scale 0-100
From the text: as §1, §2, §3, §4, §5

[6] = system: johnsongrass (Sorghum halepense, SORHA); experiment: as above; conditions: POST emergent, 14 days after application, scale 0-100
From the text: as §1, §2, §3, §4, §5

[7] = system: lambsquarters (Chenopodium album, CHEAL); experiment: as above; conditions: POST emergent, 14 days after application, scale 0-100
From the text: as §1, §2, §3, §4, §5

[8] = system: large crabgrass (Digitaria sanguinalis, DIGSA); experiment: as above; conditions: POST emergent, 14 days after application, scale 0-100
From the text: as §1, §2, §3, §4, §5

[9] = system: redroot pigweed (Amaranthus retrofiexus, AMARE); experiment: as above; conditions: POST emergent, 14 days after application
From the text: as §1, §2, §3, §4, §5

[10] = system: sicklepod (Cassia obtusifolia, CASOB); experiment: as above; conditions: POST emergent, 14 days after application, scale 0-100
From the text: as §1, §2, §3, §4, §5

[11] = system: velvetleaf (Abutilon theophrasti, ABUTH); experiment: as above; conditions: POST emergent, 14 days after application, scale 0-100
From the text: as §1, §2, §3, §4, §5

[12] = system: field corn (Zea mays L., var. Dekalb 535, CORN); experiment: Greenhouse herbicide screen, post-emerge application, crop damage rating; conditions: POST emergent, 14 days after application, scale 0-100
From the text: as §1, §2, §3, §4, §5

[13] = system: upland rice (Oryza sp., var.Cocodrie, RICE); experiment: as above; conditions: POST emergent, 14 days after application, scale 0-100
From the text: as §1, §2, §3, §4, §5

[14] = system: barnyardgrass (Echinochloa crus-galli, ECHCG); experiment: Greenhouse herbicide screen, pre-emerge application, phytotoxicity rating; conditions: PRE emergent, 14 days after application, rating scale 0-100
From the text: as §1, §2, §3, §4, §5

[15] = system: cocklebur (Xanthium strumarium, XANST); experiment: as above; conditions: PRE emergent, 14 days after application, rating scale 0-100
From the text: as §1, §2, §3, §4, §5

[16] = system: common ragweed (Ambrosia artemisiifolia L., AMBEL); experiment: as above; conditions: PRE emergent, 14 days after application, rating scale 0-100
From the text: as §1, §2, §3, §4, §5

[17] = system: green foxtail (Setaria viridis, SETVI); experiment: as above; conditions: PRE emergent, 14 days after application, rating scale 0-100
From the text: as §1, §2, §3, §4, §5

[18] = system: ivyleaf morningglory (Ipomoea hederacea, IPOHE); experiment: as above; conditions: PRE emergent, 14 days after application, rating scale 0-100
From the text: as §1, §2, §3, §4, §5

[19] = system: johnsongrass (Sorghum halepense, SORHA); experiment: as above; conditions: PRE emergent, 14 days after application, rating scale 0-100
From the text: as §1, §2, §3, §4, §5

[20] = system: lambsquarters (Chenopodium album, CHEAL); experiment: as above; conditions: PRE emergent, 14 days after application, rating scale 0-100
From the text: as §1, §2, §3, §4, §5

[21] = system: large crabgrass (Digitaria sanguinalis, DIGSA); experiment: as above; conditions: PRE emergent, 14 days after application, rating scale 0-100
From the text: as §1, §2, §3, §4, §5

[22] = system: redroot pigweed (Amaranthus retrofiexus, AMARE); experiment: as above; conditions: PRE emergent, 14 days after application, rating scale 0-100
From the text: as §1, §2, §3, §4, §5

[23] = system: sicklepod (Cassia obtusifolia, CASOB); experiment: as above; conditions: PRE emergent, 14 days after application, rating scale 0-100
From the text: as §1, §2, §3, §4, §5

[24] = system: velvetleaf (Abutilon theophrasti, ABUTH); experiment: as above; conditions: PRE emergent, 14 days after application, rating scale 0-100
From the text: as §1, §2, §3, §4, §5

[25] = system: field corn (Zea mays L., var. Dekalb 535, CORN); experiment: Greenhouse herbicide screen, pre-emerge application, crop damage rating; conditions: PRE emergent, 14 days after application, rating scale 0-100
From the text: as §1, §2, §3, §4, §5

[26] = system: upland rice (Oryza sp., var.Cocodrie, RICE); experiment: as above; conditions: PRE emergent, 14 days after application, rating scale 0-100
From the text: as §1, §2, §3, §4, §5

SMILES: CN(NC(=O)c1cc(-n2c(=O)cc(C(F)(F)F)n(C)c2=O)c(F)cc1Cl)c1ccccc1 [Compound 1-9]
- phytotoxicity rating ECHCO ([1]; 63 g ai/ha): 98
- phytotoxicity rating ECHCO ([1]; 250 g ai/ha): 100
- phytotoxicity rating XANST ([2]; 63 g ai/ha): 100
- phytotoxicity rating XANST ([2]; 250 g ai/ha): 100
- phytotoxicity rating AMBEL ([3]; 63 g ai/ha): 99
- phytotoxicity rating AMBEL ([3]; 250 g ai/ha): 100
- phytotoxicity rating SETVI ([4]; 63 g ai/ha): 60
- phytotoxicity rating SETVI ([4]; 250 g ai/ha): 95
- phytotoxicity rating IPOHE ([5]; 63 g ai/ha): 100
- phytotoxicity rating IPOHE ([5]; 250 g ai/ha): 100
- phytotoxicity rating SORHA ([6]; 63 g ai/ha): 75
- phytotoxicity rating SORHA ([6]; 250 g ai/ha): 99
- phytotoxicity rating CHEAL ([7]; 63 g ai/ha): 100
- phytotoxicity rating CHEAL ([7]; 250 g ai/ha): 100
- phytotoxicity rating DIGSA ([8]; 63 g ai/ha): 70
- phytotoxicity rating DIGSA ([8]; 250 g ai/ha): 95
- phytotoxicity rating AMARE ([9]; 63 g ai/ha, scale 0-100 (0 no damage, 100 complete death)): 100
- phytotoxicity rating AMARE ([9]; 250 g ai/ha, scale 0-100): 100
- phytotoxicity rating CASOB ([10]; 63 g ai/ha): 80
- phytotoxicity rating CASOB ([10]; 250 g ai/ha): 95
- phytotoxicity rating ABUTH ([11]; 63 g ai/ha): 100
- phytotoxicity rating ABUTH ([11]; 250 g ai/ha): 100
- crop damage rating CORN ([12]; 63 g ai/ha): 75
- crop damage rating CORN ([12]; 250 g ai/ha): 100
- crop damage rating RICE ([13]; 63 g ai/ha): 45
- crop damage rating RICE ([13]; 250 g ai/ha): 50
- phytotoxicity rating ECHCG ([14]; 63 g ai/ha): 40
- phytotoxicity rating ECHCG ([14]; 250 g ai/ha): 70
- phytotoxicity rating XANST ([15]; 63 g ai/ha): 20
- phytotoxicity rating XANST ([15]; 250 g ai/ha): 70
- phytotoxicity rating AMBEL ([16]; 63 g ai/ha): 50
- phytotoxicity rating AMBEL ([16]; 250 g ai/ha): 99
- phytotoxicity rating SETVI ([17]; 63 g ai/ha): 40
- phytotoxicity rating SETVI ([17]; 250 g ai/ha): 80
- phytotoxicity rating IPOHE ([18]; 63 g ai/ha): 60
- phytotoxicity rating IPOHE ([18]; 250 g ai/ha): 100
- phytotoxicity rating SORHA ([19]; 63 g ai/ha): 60
- phytotoxicity rating SORHA ([19]; 250 g ai/ha): 99
- phytotoxicity rating CHEAL ([20]; 63 g ai/ha): 99
- phytotoxicity rating CHEAL ([20]; 250 g ai/ha): 100
- phytotoxicity rating DIGSA ([21]; 63 g ai/ha): 50
- phytotoxicity rating DIGSA ([21]; 250 g ai/ha): 70
- phytotoxicity rating AMARE ([22]; 63 g ai/ha): 100
- phytotoxicity rating AMARE ([22]; 250 g ai/ha): 100
- phytotoxicity rating CASOB ([23]; 63 g ai/ha): 30
- phytotoxicity rating CASOB ([23]; 250 g ai/ha): 90
- phytotoxicity rating ABUTH ([24]; 63 g ai/ha): 95
- phytotoxicity rating ABUTH ([24]; 250 g ai/ha): 100
- crop damage rating CORN ([25]; 63 g ai/ha): 10
- crop damage rating CORN ([25]; 250 g ai/ha): 75
- crop damage rating RICE ([26]; 63 g ai/ha): 0
- crop damage rating RICE ([26]; 250 g ai/ha): 45

From patent US6770597B2, “Benzohydrazide derivatives as herbicides and desiccant compositions containing them” (Ishihara Sangyo Kaisha, Ltd., priority 2002, dated 2004)
